Bounds are passed on as bounds.

A short description of data set [1]: Plasma lactulose after oral lactulose solution in canine NSAID-induced gastric ulceration model (ion chromatography). Type of data set: in vivo, dog. To be noted: for concentration at 10 min / concentration at 20 min / concentration at 30 min / concentration at 60 min: dog, plasma, po; for concentration at 20 min: 20 min after 0.6-0.7 g/kg PO; for concentration at 30 min: 30 min after 0.6-0.7 g/kg PO; for concentration at 60 min: 60 min after 0.6-0.7 g/kg PO. How it is done: A model of canine gastric ulceration was developed using a combination of orally administered nonsteroidal anti-inflammatory drugs (NSAIDs) at doses appropriate to induce ulceration without concomitant renal or hepatic dysfunction. Healthy laboratory dogs (14.0 to 16.7 kg) were screened to exclude individuals with clinically silent disorders, including gastrointestinal disease. Under the GCP study protocol, each dog was administered 50 ml of a 20% w/v lactulose solution orally (0.6-0.7 g/kg lactulose PO) following a 24-h fast at baseline and following a period of ulcer induction. On each occasion, peripheral venous blood was drawn from each dog into 1.3-ml Sarstedt blood tubes containing lithium heparin as an anticoagulant at 10, 20, 30 and 60 minutes following bolus administration of the lactulose solution. The Sarstedt tube product number was 41.1393.005. Blood samples were centrifuged for 15 minutes at 3000 rpm, before decanting plasma into plain tubes; plasma was stored at −80° C. until analysis. Prior to lactulose administration, endoscopy was performed on each dog, and the presence and extent of gastric ulceration were assessed by a blinded specialist veterinary gastroenterologist. Following confirmation of the presence of ulceration, NSAID administration was discontinued and post ulcer induction lactulose administration and plasma collection were performed. Frozen plasma samples were transported under GMP conditions at −80° C. to an analytical facility. Following thawing, the samples were analysed for lactulose concentration using an ion chromatography method previously developed using blank plasma samples spiked with known concentrations of lactulose. [table] Sample preparation for Ion Chromatography analysis: 200 μL aliquots of liquid from each of the plasma samples were diluted to 1000 μL with acetonitrile. The samples were vortexed thoroughly, followed by centrifugation at 15000 rpm for 10 minutes. The supernatants were analysed directly by ion chromatography. Analysis was performed in duplicate. Calibration Curve: Calibration curves were prepared in the blank plasma sample. Briefly, plasma samples were spiked with varying concentrations of lactulose and were then diluted with acetonitrile to the required final concentration range. The samples were then processed as described above before analysis by ion chromatography. Samples were analysed in duplicate. Linearity was established for plasma lactulose concentrations in the range 5 to 250 μM.

Data set [2] is described as follows: Electrochemical dual-enzyme (β-Gal/GalOx) biosensor quantification of lactulose in canine plasma sample by amperometry. Type of data set: in vivo. To be noted: dog, oral, canine plasma sample CAN 84049 D6 t60, standard additions calibration, read-out: lactulose concentration in the original plasma sample. The source says: An electrochemical biosensor for the indirect detection of lactulose in buffer and plasma samples used an electrocatalytic surface as the working electrode which was modified with a dual enzyme system comprising β-galactosidase (β-Gal) and galactose oxidase (GalOx). The electrochemical biosensor comprised a 3-electrode system of a working electrode (the dual enzyme-modified Pt electrode), an Ag/AgCl reference electrode, and a Pt wire as auxiliary electrode.
The enzymes were immobilised on the surface of the working electrode using a cross-linker. A 2 mm diameter Pt disk was used as the electrocatalytic surface for the working electrode. […]
The three electrodes were immersed in 2 mL of PBS solution 0.1 M pH 7.3 at 35° C. to comprise the electrochemical cell and an oxidative potential of +600 mV was applied between the working and reference electrodes for quantification of lactulose in a canine plasma sample by amperometry, as illustrated in FIG. 5. […]
Following this 200 μL of canine plasma (CAN 84049 D6 t60) was added to the cell and the current response was monitored for a period of 400 s.
Three sequential additions of a volume of 1 mM Lactulose standard (V1=75 μL; V2=80 μL; V3=85 μL) were then added to the cell and the current response was monitored for 400 s after each addition. […]

The next data set has as its target H-2 receptors (Homo sapiens, UniProt P25021). The settings on record: human subjects, administered intravenously; cited from earlier work.
The subject of the next data set is gastric ulceration. Nature of the data set: Omeprazole treatment of study dogs with NSAID-induced gastric ulceration. Type of data set: in vivo, dog. The settings on record: 0.5 to 1.0 mg/kg twice daily for 3 weeks.
The test system of a further data set is gastric ulcers. To be noted: foals; ulcers associated with intravenous high-dose NSAIDs; cited from earlier work.
Setting [3] is: ulceration Moderate to severe (n = 4).

Sequence of H-2 receptors (P25021 whole entry): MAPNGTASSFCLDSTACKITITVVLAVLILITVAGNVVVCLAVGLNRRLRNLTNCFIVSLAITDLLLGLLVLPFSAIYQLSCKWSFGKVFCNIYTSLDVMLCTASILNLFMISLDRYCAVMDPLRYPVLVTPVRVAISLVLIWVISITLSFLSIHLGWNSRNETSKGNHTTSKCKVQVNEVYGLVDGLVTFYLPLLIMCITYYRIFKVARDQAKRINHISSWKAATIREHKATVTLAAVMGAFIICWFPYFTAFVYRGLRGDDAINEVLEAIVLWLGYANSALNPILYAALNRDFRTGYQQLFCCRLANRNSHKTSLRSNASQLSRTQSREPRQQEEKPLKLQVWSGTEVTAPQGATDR

As for `OC[C@H]1O[C@@H](O[C@@H]2[C@@H](CO)OC(O)(CO)[C@H]2O)[C@H](O)[C@@H](O)[C@H]1O` (mixture of isomers) [Lactulose, lactulose], the concentration at 10 min in data set [1] (10 min after 0.6-0.7 g/kg PO (50 ml 20% w/v), endoscopic grade of gastric ulceration Absent (n = 8)) was determined as 24.9 µM; in data set [1] (10 min after 0.6-0.7 g/kg PO, ulceration Mild (n = 4)) it was 44.6 µM; in data set [1] (10 min after 0.6-0.7 g/kg PO, ulceration Moderate to severe (n = 4)), 60.9 µM. The concentration at 20 min in data set [1] (ulceration Absent (n = 8)) stood at 39.1 µM; in data set [1] (ulceration Mild (n = 4)), 68.7 µM; in data set [1] (setting [3]), 94.3 µM. Further, the concentration at 30 min in data set [1] (ulceration Absent (n = 8)) turned out to be 46 µM; in data set [1] (ulceration Mild (n = 4)), 88.2 µM; in data set [1] (setting [3]), 144 µM. Further, the concentration at 60 min in data set [1] (ulceration Absent (n = 8)) is 61.1 µM; in data set [1] (ulceration Mild (n = 4)), 110 µM; in data set [1] (setting [3]), 184 µM; in data set [2], 275 to 400 µM. Further, the “rate and extent of systemic lactulose absorption” value in data set [1] (following ulcer induction versus baseline, each dog) is “increased significantly”.
On to `NC(N)=Nc1nc(CSCCC(N)=NS(N)(=O)=O)cs1` [famotidine], for which the “time to occurrence of tolerance” value on H-2 receptors is 12 to 72 h.
For `COc1ccc2[nH]c([S+]([O-])Cc3ncc(C)c(OC)c3C)nc2c1` (centres unmarked) [omeprazole], in the data set on gastric ulceration, the “time to resolution of laboratory evidence of gastric ulceration (anemia, inflammatory leucogram, hypoalbuminaemia)” value is listed as ≤ 3 weeks.
Regarding sucralfate, the “effect on gastric ulcers” value in the data set on gastric ulcers is “protective effect”.

The values above are taken from patent US20230108730A1, “BIENZYMATIC BIOSENSOR FOR THE DETECTION OF LACTULOSE IN BLOOD” (TRIVIUMVET DESIGNATED ACTIVITY COMPANY, priority 2020, published 2023).
